From patent US7030085B2, “Thiopeptide compounds” (Astellas Pharma INC, priority 2001, dated 2006)
≈ marks a conversion by molar mass, not a printed value.

Legend:
[1] = system: Enterococcus faecium CAY09—2 (VRE); assay: MIC determination, standard method of the Chemotherapy Society of Japan; format: cell-based
Description: (§1) The minimal inhibitory concentration (MIC) of the compounds of the invention obtained in Example 1, QN3323A, QN3323-B, QN3323-Y1, thiocillin I, thiocillin II and micrococcin P2 against Staphylococcus aureus FDA209P (S. aureus), Staphylococcus epidermidis IID866 (S. epidezmidis), Enterococcus faecalis IID682 (E. Faecalis) and Enterococcus faecium CAY09—1 (E. faecium), as well as against drug-resistant bacteria, Staphylococcus aureus CAY32001 (MRSA) (S. aureus (MRSA)) and Enterococcus faecium CAY09—2 (VRE) (E. faecium (VRE)) was measured according to the standard method of the Chemotherapy Society of Japan (CHEMOTHERAPY, 1981, 29(1):76, revised minimal inhibitory concentration (MIC) determination method). The cells of S. aureus (MRSA) were incubated at 32° C.

[2] = system: Staphylococcus aureus CAY32001 (MRSA); assay: as above; format: cell-based
Description: as §1

[3] = system: Staphylococcus epidermidis IID866; assay: as above; format: cell-based
Description: as §1

[4] = system: Staphylococcus aureus FDA209P; assay: as above; format: cell-based
Description: as §1

[5] = system: Enterococcus faecium CAY09—1; assay: as above; format: cell-based
Description: as §1

[6] = system: Enterococcus faecalis IID682; assay: as above; format: cell-based
Description: as §1

[7] = system: Staphylococcus aureus Smith; assay: Remedial effect for infected mouse model; format: in vivo; conditions: male ICR(CD-1) mice infected intraabdominally with S. aureus Smith; compound subcutaneous two hours after infection; observed 4 to 7 days after treatment; probit method
Protocol: Remedial Effect for Infected Mouse Model
The compounds of the invention, QN3323-A, QN3323-B, thiocillin I and thiocillin II were tested using an infected mouse model to determine the effectivness thereof. Concretely, cells of Staphylococcus aureus Smith cultivated for 16 hours at 37° C. were suspended in 3% butamutin (by Tokyo Kasei), and the resulting cell suspension was intraabdominally infected into 4-week old male ICR(CD-1) mice (from Charles River of Japan, SPF) (about 3×10^6 CFU/mouse). Two hours after the infection, the compound of the invention dissolved in a solvent (10% DMSO, 10% HCO-60 (by Nikko Chemicals), 80% physiological saline), was subcutaneously administered to each mouse. On 4 to 7 days after the treatment, the mice were observed, and their ED50 value was calculated according to probit method.

[8] = S. aureus CAY32001 (MRSA), incubated at 32° C.

Row | MIC ([1]; E. faecium CAY09—2 (VRE)) | MIC [2, 8] | Compound | MIC [3] | MIC ([1]; Enterococcus faecium, VRE) | MIC ([2]; Staphylococcus aureus, MRSA) | MIC [4] | MIC [5] | MIC [6] | ED5O [7]
1 |  |  | C/C=C(\NC(=O)c1csc(-c2csc(-c3ccc4c(n3)-c3csc(n3)C(C(C)O)NC(=O)c3csc(n3)C(C(C)(C)O)NC(=O)c3csc(n3)/C(=C\C)NC(=O)C(C(C)O)NC(=O)c3csc-4n3)n2)n1)C(=O)NCC(C)O (centres unmarked) [QN3323-Y1] | 0.25 µg/mL (≈ 0.215 µM) | 0.25 µg/mL (≈ 0.215 µM) | 2 µg/mL (≈ 1.72 µM) | 0.25 µg/mL (≈ 0.215 µM) | 0.5 µg/mL (≈ 0.431 µM) | 0.5 µg/mL (≈ 0.431 µM) | 
2 | 0.78 µg/mL (≈ 0.672 µM) | 0.78 µg/mL (≈ 0.672 µM) | C/C=C(\NC(=O)c1csc(-c2csc(-c3ccc4c(n3)-c3csc(n3)[C@H]([C@@H](C)O)NC(=O)c3csc(n3)[C@H](C(C)(C)O)NC(=O)c3csc(n3)/C(=C/C)NC(=O)[C@H]([C@@H](C)O)NC(=O)c3csc-4n3)n2)n1)C(=O)NC[C@@H](C)O [Thiocillin I, thiocillin I] |  |  |  |  |  |  | 1.4 mg/kg
3 | 0.05 µg/mL (≈ 0.0426 µM) | 0.10 µg/mL (≈ 0.0851 µM) | C/C=C(/NC(=O)c1csc(-c2csc(-c3ccc4c(n3)-c3csc(n3)C(C(C)OC)NC(=O)c3csc(n3)C(C(C)(C)O)NC(=O)c3csc(n3)/C(=C\C)NC(=O)C(C(C)O)NC(=O)c3csc-4n3)n2)n1)C(=O)NCC(C)O (centres unmarked) [Thiocillin II, thiocillin II] |  |  |  |  |  |  | 2.2 mg/kg

Row | Compound | MIC ([1]; E. faecium CAY09—2 (VRE)) | MIC [2, 8] | MIC [3] | MIC ([1]; Enterococcus faecium, VRE) | MIC ([2]; Staphylococcus aureus, MRSA) | MIC [4] | MIC [5] | MIC [6] | ED5O [7]
4 | C/C=C(\NC(=O)c1csc(-c2csc(-c3ccc4c(n3)-c3csc(n3)[C@H]([C@@H](C)O)NC(=O)c3csc(n3)[C@H](C(C)C)NC(=O)c3csc(n3)/C(=C/C)NC(=O)[C@H]([C@@H](C)O)NC(=O)c3csc-4n3)n2)n1)C(=O)NCC(C)=O [Micrococcin P2, micrococcin P2] | 0.2 µg/mL (≈ 0.175 µM) | 0.78 µg/mL (≈ 0.683 µM) |  |  |  |  |  |  | 
